Data reported in ChEMBL document CHEMBL1133275, “Synthesis of the nucleoside moiety of liposidomycins: elucidation of the pharmacophore of this family of MraY inhibitors” (Bioorg Med Chem Lett, 2000).

Assays:
[1] = The inhibitory activity determined by using toluene-permeabilized cells of Escherichia coli and the specific nucleoside substrate of the translocase UMA5
[2] = Inhibitory activity of compound was determined against bacterial translocase

| SMILES | IC50 [1] [µM] | IC50 [2] [µM] |
| --- | --- | --- |
| NC[C@H]1O[C@@H](OC[C@H]2O[C@@H](n3ccc(=O)[nH]c3=O)[C@H](O)[C@@H]2O)[C@H](O)[C@@H]1O | 50 |  |
| NC[C@H]1O[C@@H](O[C@@H](CO)[C@H]2O[C@@H](n3ccc(=O)[nH]c3=O)[C@H](O)[C@@H]2O)[C@H](O)[C@@H]1O |  | 425 |
| NC[C@H]1O[C@@H](O[C@H](CO)[C@H]2O[C@@H](n3ccc(=O)[nH]c3=O)[C@H](O)[C@@H]2O)[C@H](O)[C@@H]1O |  | 5 |
| CSCCC(NC(=O)NC(Cc1cccc(O)c1)C(=O)O)C(=O)NC(C(=O)N/C=C1/CC(O)C(N2CCC(=O)NC2=O)O1)C(C)N(C)C(=O)C(N)Cc1cccc(O)c1 (stereo not given) |  | 0.065 |
| CC(=O)N[C@H]1[C@@H](O[C@@H]2O[C@H](CC(O)[C@H]3O[C@@H](n4ccc(=O)[nH]c4=O)[C@H](O)[C@@H]3O)[C@H](O)[C@H](O)[C@H]2NC(=O)/C=C/CC(C)C)O[C@H](CO)[C@@H](N)[C@@H]1O (stereo not given in full) [TUNICAMYCIN] |  | 0.48 |
